Experimental data taken from publication PMC10691697, “A small molecule exerts selective antiviral activity by targeting the human cytomegalovirus nuclear egress complex” (PLOS Pathogens, 2023).
Values joined by “and” are separate entries in the source; they are usually repeats but may differ in a detail not shown here. Identical values can stand only once.

How the values were obtained:
HCMV UL50-UL53 = biological target: T1, HCMV UL50-UL53 (Human cytomegalovirus, UniProt P16794); assay: biochemical; type: binding; settings: for scoring as a hit in the HTRF screen: hit = at least 50 percent inhibition of HTRF signal, ibrutinib up to 50 μM
T1 construct: GST (N, cleaved yes); 13-residue glycine-serine linker […]; made in house; host or cells: E. coli BL21 (DE3) RIPL

HSV-1 P30-UL42 [1] = biological target: T2, HSV-1 P30-UL42 (Human herpesvirus 1, UniProt P10226); assay: biochemical; type: binding
T2 construct: containing UL42 residues 1–340; GST (N); glycine-serine linker of the modified pGEX6p plasmid (presence inferred) (N); made in house; host or cells: E. coli (UL42: pLysS BL21)

HSV-1 P30-UL42 [2] = biological target: T3, HSV-1 P30-UL42 (Human herpesvirus 1, UniProt P10226); assay: biochemical; type: binding; remark: listed apart in the source
T3 construct: containing UL42 residues 1–340; GST (N); glycine-serine linker of the modified pGEX6p plasmid (presence inferred) (N); made in house; host or cells: E. coli (UL42: pLysS BL21)
T3 sequence (P10226 whole entry, looked up): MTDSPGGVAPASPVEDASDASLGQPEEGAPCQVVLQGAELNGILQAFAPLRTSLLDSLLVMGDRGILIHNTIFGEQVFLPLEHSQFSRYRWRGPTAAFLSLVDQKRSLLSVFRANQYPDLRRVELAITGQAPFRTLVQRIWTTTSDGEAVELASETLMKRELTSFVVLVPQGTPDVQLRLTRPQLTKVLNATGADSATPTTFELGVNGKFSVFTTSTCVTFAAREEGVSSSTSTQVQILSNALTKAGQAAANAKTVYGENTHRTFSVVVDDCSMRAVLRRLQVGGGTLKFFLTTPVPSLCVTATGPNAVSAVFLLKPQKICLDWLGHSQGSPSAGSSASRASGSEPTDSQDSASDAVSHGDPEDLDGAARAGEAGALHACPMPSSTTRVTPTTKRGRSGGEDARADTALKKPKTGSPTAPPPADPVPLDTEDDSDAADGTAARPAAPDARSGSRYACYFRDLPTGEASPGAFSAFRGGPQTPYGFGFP

[3] = biological target: T4, His-tagged HCMV UL50 (residues 1-169) (human cytomegalovirus (HCMV), UniProt P16791 1-169); assay: AlphaScreen or HTRF; settings: both partners purified
T4 construct: also called His-UL50; tagged UL50; source: E. coli BL21 (DE3) RIPL, purified (nickel Sepharose, size exclusion chromatography); not shown: His, N-terminal, kept
T4 sequence: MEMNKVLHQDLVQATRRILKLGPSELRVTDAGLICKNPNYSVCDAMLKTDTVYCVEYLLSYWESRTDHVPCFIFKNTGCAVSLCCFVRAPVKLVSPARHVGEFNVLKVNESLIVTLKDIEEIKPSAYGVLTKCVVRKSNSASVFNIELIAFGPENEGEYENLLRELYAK

[4] = biological target: T5, His-SUMO-tagged HSV-1 UL42 (residues 1-340) (herpes simplex virus 1 (HSV-1), UniProt P10226 1-340); assay: AlphaScreen or HTRF; settings: both partners purified
T5 construct: also called His-SUMO-UL42; His-tagged HSV-1 UL42; source: E. coli pLysS BL21, purified as described for the HCMV NEC proteins
T5 sequence: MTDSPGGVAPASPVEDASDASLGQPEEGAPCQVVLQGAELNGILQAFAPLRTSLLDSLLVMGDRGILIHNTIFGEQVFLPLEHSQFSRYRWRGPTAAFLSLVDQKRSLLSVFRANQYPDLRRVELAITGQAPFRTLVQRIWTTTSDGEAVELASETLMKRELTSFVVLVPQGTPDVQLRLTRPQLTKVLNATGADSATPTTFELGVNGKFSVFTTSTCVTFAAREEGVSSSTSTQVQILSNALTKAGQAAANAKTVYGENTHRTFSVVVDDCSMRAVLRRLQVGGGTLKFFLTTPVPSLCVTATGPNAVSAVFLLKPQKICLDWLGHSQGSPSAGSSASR

[5] = biological target: T6, Myc-tagged HCMV UL53 (residues 50-292) (human cytomegalovirus (HCMV), UniProt P16794 50-292); assay: AlphaScreen or HTRF; settings: both partners purified
T6 construct: source: E. coli BL21 (DE3) RIPL, purified (glutathione-agarose, on-column PreScission digestion, size exclusion chromatography); not shown: GST, N-terminal, cleaved; Myc, N-terminal, kept
T6 sequence: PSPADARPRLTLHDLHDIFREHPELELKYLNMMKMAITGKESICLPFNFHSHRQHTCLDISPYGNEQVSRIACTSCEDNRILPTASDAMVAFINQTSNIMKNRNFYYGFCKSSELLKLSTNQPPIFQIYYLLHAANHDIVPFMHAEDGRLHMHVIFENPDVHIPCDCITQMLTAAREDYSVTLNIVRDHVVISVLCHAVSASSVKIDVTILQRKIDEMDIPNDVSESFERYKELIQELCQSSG

[6] = LINCS2 well 2, 10 μM in the assay
[7] = LINCS2 well 4, 0.4 μM in the assay
[8] = Selleck well, 50 μM in the assay

Q: How did the “scoring as a hit in the HTRF screen” value (HCMV UL50-UL53) turn out when `O=C([O-])c1ccccc1-c1c2cc(Br)c(=O)cc-2oc2[c]([Hg+])c([O-])c(Br)cc12.[Na+].[Na+].[OH-]` [merbromin, reference compound] was run?
A: scored negative

Q: With `CCC(=O)Nc1cccc(Oc2ccnc3[nH]ccc23)c1` [aGK2] as the molecule, how does the remaining activity at 1.56 µM (HSV-1 P30-UL42 [1]; HSV1 P30-UL42, 1.56 μM compound, replicates, read-out: normalized FRET signal relative to control without inhibitor) read?
A: 101%

Q: And the remaining activity at 3.13 µM (HSV-1 P30-UL42 [1]; HSV1 P30-UL42, 3.13 μM compound, replicates, read-out: normalized FRET signal relative to control without inhibitor)?
A: 102%

Q: And the remaining activity at 6.25 µM (HSV-1 P30-UL42 [1]; HSV1 P30-UL42, 6.25 μM compound, replicates, read-out: normalized FRET signal relative to control without inhibitor)?
A: 99%

Q: What about the remaining activity at 50 µM (HSV-1 P30-UL42 [1]; HSV1 P30-UL42, 50.00 μM compound, replicates, read-out: normalized FRET signal relative to control without inhibitor) of the same molecule?
A: 97%

Q: What about the remaining activity at 25 µM (HSV-1 P30-UL42 [1]; HSV1 P30-UL42, […] compound, replicates, read-out: normalized FRET signal relative to control without inhibitor) of the same molecule?
A: 99%

Q: What about the “inhibition in the HSV-1 P30-UL42 counterscreen assay” value (HSV-1 P30-UL42 [1]; all concentrations tested (up to 50 μM)) of the same molecule?
A: little, if any activity

Q: And the “activity in the HTRF assay for NEC interactions” value (HCMV UL50-UL53)?
A: little, if any activity

Q: What about the remaining activity at 1.56 µM (HCMV UL50-UL53; WT UL50-UL53, 1.56 μM compound, replicates, read-out: normalized FRET signal relative to control without inhibitor) of the same molecule?
A: 95%

Q: And the remaining activity at 3.13 µM (HCMV UL50-UL53; WT UL50-UL53, 3.13 μM compound, replicates, read-out: normalized FRET signal relative to control without inhibitor)?
A: 95%

Q: And the remaining activity at 6.25 µM (HCMV UL50-UL53; WT UL50-UL53, 6.25 μM compound, replicates, read-out: normalized FRET signal relative to control without inhibitor)?
A: 92%

Q: And the remaining activity at 50 µM (HCMV UL50-UL53; WT UL50-UL53, 50.00 μM compound, replicates, read-out: normalized FRET signal relative to control without inhibitor)?
A: 93%

Q: What about the remaining activity at 25 µM (HCMV UL50-UL53; WT UL50-UL53, […] compound, replicates, read-out: normalized FRET signal relative to control without inhibitor) of the same molecule?
A: 94%

Q: With `C=CC(=O)N1CCC[C@@H](n2nc(-c3ccc(Oc4ccccc4)cc3)c3c(N)ncnc32)C1` [ibrutinib, reference compound] as the molecule, how does the “HTRF Channel 2 (620 nm)” value (HCMV UL50-UL53; LINCS2 well 1, 50 μM in the assay) read?
A: 5736 and 5840

Q: What about the “HTRF Channel 1 (665 nm)” value (HCMV UL50-UL53; [6]) of the same molecule?
A: 31679

Q: And the “HTRF Channel 2 (620 nm)” value (HCMV UL50-UL53; [6])?
A: 5859 and 6111

Q: What about the “HTRF Channel 2 (620 nm)” value (HCMV UL50-UL53; LINCS2 well 3, 2 μM in the assay) of the same molecule?
A: 6125 and 5780

Q: And the “HTRF Channel 1 (665 nm)” value (HCMV UL50-UL53; [7])?
A: 31815

Q: And the “HTRF Channel 2 (620 nm)” value (HCMV UL50-UL53; [7])?
A: 5791 and 5828

Q: What about the “inhibition in HTRF screen” value (HCMV UL50-UL53; LINCS wells, 50, 10, 2 and 0.4 μM) of the same molecule?
A: Essentially no inhibition

Q: What about the “HTRF Channel 1 (665 nm)” value (HCMV UL50-UL53; [8]) of the same molecule?
A: 7468 and 7529

Q: And the “HTRF Channel 2 (620 nm)” value (HCMV UL50-UL53; [8])?
A: 8631 and 9073

Q: And the “scoring as a hit in the HTRF screen” value (HCMV UL50-UL53)?
A: not registering as a hit

Q: With “Untagged P30: untagged C-terminal 36 residues of HSV-1 UL30 (DDVAARLRAAGFGAVGAGATAEETRRMLHRAFDTLA) [reference compound]” as the molecule, how does the HTRF ratio (HSV-1 P30-UL42 [2]; P30-UL42 + untagged protein, A665nm/A620nm * 10000, single replicates) read?
A: 26529 and 26670 and 27659

Q: And the “HTRF ratio, Mean” value (HSV-1 P30-UL42 [2]; P30-UL42 + untagged protein, triplicate)?
A: 26953

Q: What about the S/B (HSV-1 P30-UL42 [2]; P30-UL42 with untagged protein) of the same molecule?
A: 2.4

B1: Myc-tagged HCMV UL53 (residues 50-292) with glycine-serine linker (domain or fragment)
chain: GGGGSGGGGSGGGPSPADARPRLTLHDLHDIFREHPELELKYLNMMKMAITGKESICLPFNFHSHRQHTCLDISPYGNEQVSRIACTSCEDNRILPTASDAMVAFINQTSNIMKNRNFYYGFCKSSELLKLSTNQPPIFQIYYLLHAANHDIVPFMHAEDGRLHMHVIFENPDVHIPCDCITQMLTAAREDYSVTLNIVRDHVVISVLCHAVSASSVKIDVTILQRKIDEMDIPNDVSESFERYKELIQELCQSSG
notes: source: E. coli BL21 (DE3) RIPL, purified (glutathione-agarose, on-column PreScission digestion, size exclusion chromatography); not shown: GST, N-terminal, cleaved; Myc, N-terminal, kept
Q: For B1, which “HTRF ratio, fold over the background of either tagged subunit alone” value [3] is on record?
A: ~3 fold

B2: Myc-tagged HSV-1 Pol C-terminal peptide P30 (UL30 residues 1200-1235) (peptide)
chain: GGGGSGGGGSGGGDDVAARLRTAGFGAVGAGATAEETRRMLHRAFDTLA
notes: source: E. coli, expressed and purified as described for Myc-UL53; not shown: Myc, N-terminal, kept
Q: Does B2 bind [4]?
A: binds

B3: His-tagged HCMV UL50 (residues 1-169) (domain or fragment)
chain: MEMNKVLHQDLVQATRRILKLGPSELRVTDAGLICKNPNYSVCDAMLKTDTVYCVEYLLSYWESRTDHVPCFIFKNTGCAVSLCCFVRAPVKLVSPARHVGEFNVLKVNESLIVTLKDIEEIKPSAYGVLTKCVVRKSNSASVFNIELIAFGPENEGEYENLLRELYAK
notes: also called His-UL50; source: E. coli BL21 (DE3) RIPL, purified (nickel Sepharose, size exclusion chromatography); not shown: His, N-terminal, kept
Q: How did the Kd [5] turn out when B3 was run?
A: 220 nM and 380 nM

B4: His-tagged HCMV UL50 (residues 1-169) C54S (domain or fragment)
chain: MEMNKVLHQDLVQATRRILKLGPSELRVTDAGLICKNPNYSVCDAMLKTDTVYSVEYLLSYWESRTDHVPCFIFKNTGCAVSLCCFVRAPVKLVSPARHVGEFNVLKVNESLIVTLKDIEEIKPSAYGVLTKCVVRKSNSASVFNIELIAFGPENEGEYENLLRELYAK
notes: source: E. coli BL21 (DE3) RIPL, purified (same methods as His-UL50); not shown: His, N-terminal, kept
Q: With B4 as the molecule, how does the Kd [5] read?
A: 140 nM and 340 nM

B5: His-tagged HCMV UL50 (residues 1-169) C79S (domain or fragment)
chain: MEMNKVLHQDLVQATRRILKLGPSELRVTDAGLICKNPNYSVCDAMLKTDTVYCVEYLLSYWESRTDHVPCFIFKNTGSAVSLCCFVRAPVKLVSPARHVGEFNVLKVNESLIVTLKDIEEIKPSAYGVLTKCVVRKSNSASVFNIELIAFGPENEGEYENLLRELYAK
notes: as for B4
Q: Which Kd [5] does the source give for B5 here?
A: 230 nM and 450 nM

B6: His-tagged HCMV UL50 (residues 1-169) C35N (domain or fragment)
chain: MEMNKVLHQDLVQATRRILKLGPSELRVTDAGLINKNPNYSVCDAMLKTDTVYCVEYLLSYWESRTDHVPCFIFKNTGCAVSLCCFVRAPVKLVSPARHVGEFNVLKVNESLIVTLKDIEEIKPSAYGVLTKCVVRKSNSASVFNIELIAFGPENEGEYENLLRELYAK
notes: as for B4
Q: How did the Kd [5] turn out when B6 was run?
A: 110 nM and 190 nM
